These results are taken from US7297682B2, “Diphosphate salt of a 4″—substituted-9-deoxo-9 A—AZA—homoerythromycin derivatives and its pharmaceutical composition” (Pfizer Inc., priority 1999, dated 2007).

Counter-ions that a name gives are not always drawn.

A short description of one data set: physchem. The data set is classed as physicochemical. The note with it: water.
Data set [1] is described as follows: hygroscopicity: water uptake and water content versus relative humidity (VTI, Karl Fisher). The format is physicochemical. Here is the method: The crystalline diphosphate salt gradually absorbs water to about 13% at 87% relative humidity with a rapid uptake of water to about 48% occurring at about 90% relative humidity. Thermogravametric analysis on the diphosphate salt discloses that three waters are lost by about 75° C., a fourth water is lost by about 120° C., the fifth water is lost by about 170° C., and the final three waters are lost by about 200° C. The maximum number of water molecules necessary for the stabilization of the crystalline lattice appears to be about eight. Drying the diphosphate salt in about 70° C. in air or about 45° C. in a vacuum removed the water leaving a pseudomorph.
Drying in the VTI at 20-25° C. indicated a weight loss of 10%; the dried salt gradually adsorbed water to 15% at 85% RH (relative humidity), followed by a rapid uptake to 48% at 90% RH. At 90% RH, the compound deliquesced.
The mobility of the water within the crystalline lattice is directly related to the relative humidity of the environment the diphosphate salt comes in contact with. For example, at about 87% relative humidity, the compound contains about 13% water; at 60% relative humidity the compound contains about 8% water; and at 40% relative humidity the diphosphate salt contains about 5% water (all calculations by KF).
Both the liquid crystal and the crystalline form of the diphosphate were hygroscopic. When attempts were conducted in hydrophilic solvents, the addition of 4% to 5% (v/v) water to the amorphous slurry caused the compound to crystallize as an octahydate.

Turning to `CCCNC[C@]1(O)C(C)OC(OC2C(C)C(=O)OC(CC)[C@@](C)(O)[C@H](O)[C@@H](C)NC[C@H](C)C[C@](C)(O)[C@H](OC3OC(C)CC(N(C)C)[C@H]3O)C2C)C[C@@]1(C)OC` (stereo partly drawn) [crystalline diphosphate salt, (2R,3S,4R,5R,8R,10R,11R,12S,13S,14R)-13-[[2,6-dideoxy-3-C-methyl-3-O-methyl-4-C-[(propylamino)methyl]-α-L-ribo-hexopryanosyl]oxy]-2-ethyl-3,4,10-trihydroxy-3,5,8,10,12,14-hexamethyl-11-[[3,4,6-trideoxy-3-(dimethylamino)-β-D-xylo-hexopyranosyl]oxy]-1-oxa-6-azacyclopentadecan-15-one diphosphate], in the data set “physchem”, the solubility (commonly the concentration that dissolves in the medium under given conditions) was about 280 mg/mL. Moreover, in data set [1] (after drying in the VTI at 20-25° C., at 85% RH), the “water adsorbed (gradual) by dried salt” value is given as 15%. Also, in data set [1] (after drying in the VTI at 20-25° C., at 90% RH), the “rapid uptake of water by dried salt” value is given as 48%. Moreover, the “water content (by KF)” value in data set [1] (at 40% relative humidity) is “about 5%”; in data set [1] (at 60% relative humidity), “about 8%”; in data set [1] (at about 87% relative humidity), “about 13%”. Further, in data set [1] (at 87% relative humidity), the “water absorbed (gradual)” value is given as “about 13%”. The “behaviour at high humidity” value in data set [1] (at 90% RH) was “deliquesced”. In data set [1] (at about 90% relative humidity), the “rapid uptake of water” value is given as “about 48%”.
As for `CCCNC[C@]1(O)C(C)OC(OC2C(C)C(=O)OC(CC)[C@@](C)(O)[C@H](O)[C@@H](C)NC[C@H](C)C[C@](C)(O)[C@H](OC3OC(C)CC(N(C)C)[C@H]3O)C2C)C[C@@]1(C)OC` (stereo partly drawn) [liquid crystal, (2R,3S,4R,5R,8R,10R,11R,12S,13S,14R)-13-[[2,6-dideoxy-3-C-methyl-3-O-methyl-4-C-[(propylamino)methyl]-α-L-ribo-hexopryanosyl]oxy]-2-ethyl-3,4,10-trihydroxy-3,5,8,10,12,14-hexamethyl-11-[[3,4,6-trideoxy-3-(dimethylamino)-β-D-xylo-hexopyranosyl]oxy]-1-oxa-6-azacyclopentadecan-15-one diphosphate], the hygroscopicity entry in data set [1] was “hygroscopic”.
